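Grown in 96-well plates, cells were treated for 48 hours with each compound at five concentrations. Insufficient inhibition: endpoint recorded as highest concentration tested. The concentration for full growth arrest is given as TGI.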
Legend:
Experiment in all cases: DTP human tumour cell line panel, 48 h
[1] = test system: COLO 205 colon
[2] = test system: HOP-62 NSCLC
[3] = test system: NCI-H23 lung
[4] = test system: SF-268 CNS
[5] = test system: T-47D breast
[6] = test system: UACC-62 melanoma
[7] = test system: DLD-1 colon
[8] = test system: DMS 114 small cell lung
[9] = test system: DMS 273 small cell lung
[10] = test system: HOP-18 NSCLC
[11] = test system: KM20L2 colon
[12] = test system: LXFL 529 NSCLC
[13] = test system: M19-MEL melanoma
[14] = test system: SNB-78 CNS
[15] = test system: XF 498 CNS

Row | Structure (SMILES) | TGI [1] [µM] | TGI [2] [µM] | TGI [3] [µM] | TGI [4] [µM] | TGI [5] [µM] | TGI [6] [µM] | TGI [7] [µM] | TGI [8] [µM] | TGI [9] [µM] | TGI [10] [µM] | TGI [11] [µM] | TGI [12] [µM] | TGI [13] [µM] | TGI [14] [µM] | TGI [15] [µM]
1 | C1CSCCSCCCSC2CCCCC2SC1 (stereo not given) | > 100 | > 100 | > 100 | > 100 | > 100 | > 100 | – | – | – | – | – | – | – | – | –
2 | Cc1c(C)c(C)c(Cn2[nH]c(=O)n(C)c2=O)c(C)c1C | > 100 | > 100 | > 100 | > 100 | > 100 | > 100 | – | – | – | – | – | – | – | – | –
3 | Cc1nc(SCC(=O)Nc2ccc(Cl)cc2)c2sc(=S)n(-c3ccccc3)c2n1 | > 10 | > 10 | > 10 | > 10 | > 10 | > 10 | – | – | – | – | – | – | – | – | –
4 | CC(=O)c1[nH]c(NC(C)C)c(C(=S)Nc2ccccc2)c1N | > 100 | > 100 | > 100 | 65.9 | 82.6 | 53.8 | – | – | – | – | – | – | – | – | –
5 | CCCNC(=S)N/N=C(\C)c1ccc(S(=O)(=O)N(C)c2ccccc2)cc1 | > 100 | 29 | > 100 | 41.8 | > 100 | > 100 | – | – | – | – | – | – | – | – | –
6 | Cc1ccc(C2(c3ccc(Cl)cc3)c3ccccc3C3=NCCN32)cc1 (stereo not given) | 18.7 | 23.8 | 32 | 31.5 | 39.2 | 20 | – | – | – | – | – | – | – | – | –
7 | COc1c(C)cc2c(C(C)C)c(O)c(O)c(C=O)c2c1O | 36.3 | – | 47.8 | > 100 | – | 47.5 | > 100 | 37.9 | 59.1 | 71.7 | 88.1 | > 100 | 81.8 | > 100 | > 100
8 | COc1cc(C2C3=C(COC3=O)Oc3cc4c(cc32)OCO4)ccc1O (stereo not given) | 0.576 | > 100 | > 100 | > 66.4 | > 100 | > 100 | – | – | – | – | – | – | – | – | –
9 | O=C(Cc1ccccc1F)NC1=C(Cl)C(=O)c2ccccc2C1=O | 6.9 | 24.2 | 3.87 | 15.1 | 5.8 | 1.92 | – | 0.543 | 11.5 | 3.32 | 29.8 | 5.56 | 12.4 | – | 1.68
10 | COc1ccc(/C=C2/CSCC3=C2NC(=S)NC3c2ccc(OC)c(OC)c2OC)c(OC)c1OC (stereo not given) | 76.9 | 47.9 | 43 | > 100 | > 100 | 45 | – | – | – | – | – | – | – | – | –
11 | CCCCCCCCCCCC(=O)OC[C@H](C[As](=O)(O)O)OC(=O)CCCCCCCCCCC | 38.8 | 31.7 | 21.2 | > 42.5 | 47.2 | 6.98 | 26.7 | 4.77 | 15 | 20.3 | 18.8 | 14 | 22 | 9.45 | 24
12 | O=C1c2ccccc2C(=O)N1CCSCC(CO)SCCN1C(=O)c2ccccc2C1=O (stereo not given) | > 100 | > 100 | > 100 | > 100 | > 100 | > 100 | – | – | – | – | – | – | – | – | –
